Experimental data taken from PubChem BioAssay (NCI).
Values joined by “and” are separate entries in the source; they are usually repeats but may differ in a detail not shown here. Equal entries are not always repeated.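 48-hour exposure; five concentrations; linearly interpolated endpoints. GI50: concentration for 50% inhibition of growth. TGI marks complete inhibition of growth.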

What was measured:
Test in all cases: NCI-60 cell line screen, 48 h
RXF 393 renal = tested on: RXF 393 renal
MDA-MB-435 = tested on: MDA-MB-435
UACC-62 melanoma = tested on: UACC-62 melanoma
K-562 leukemia = tested on: K-562 leukemia
OVCAR-4 ovarian = tested on: OVCAR-4 ovarian
A498 renal = tested on: A498 renal
UO-31 renal = tested on: UO-31 renal
NCI-H460 lung = tested on: NCI-H460 lung
MOLT-4 leukemia = tested on: MOLT-4 leukemia
SK-MEL-2 melanoma = tested on: SK-MEL-2 melanoma

| Compound | GI50 (RXF 393 renal) | TGI (RXF 393 renal) | GI50 (MDA-MB-435) | TGI (MDA-MB-435) | GI50 (UACC-62 melanoma) | TGI (UACC-62 melanoma) | GI50 (K-562 leukemia) | GI50 (OVCAR-4 ovarian) | TGI (OVCAR-4 ovarian) | GI50 (A498 renal) | TGI (A498 renal) | GI50 (UO-31 renal) | TGI (UO-31 renal) | GI50 (NCI-H460 lung) | TGI (NCI-H460 lung) | GI50 (MOLT-4 leukemia) | TGI (MOLT-4 leukemia) | GI50 (SK-MEL-2 melanoma) | TGI (SK-MEL-2 melanoma) | TGI (K-562 leukemia) |
| --- | --- | --- | --- | --- | --- | --- | --- | --- | --- | --- | --- | --- | --- | --- | --- | --- | --- | --- | --- | --- |
| O=C(NCCCCCCNC(=O)OCc1ccc2c(Cl)cc(Cl)c(O)c2n1)OCc1ccc2c(Cl)cc(Cl)c(O)c2n1 | 0.478 µM | 1.57 µM | 0.443 µM | 1.71 µM | 1.06 µM | 2.28 µM | 0.381 µM | 0.707 µM | 2.04 µM | 1.25 µM | 2.55 µM | 0.619 µM | 1.95 µM | 1.23 µM | 3.12 µM | 0.688 µM | 5.55 µM | 1.45 µM | 2.99 µM | – |
| CNC(=O)CN1CCC(Oc2cc3c(Nc4cccc(Cl)c4F)ncnc3cc2OC)CC1 | 7.35 µM and 2.37 µM | 27.3 µM and > 6.92 µM | 21.5 µM and > 8.41 µM | > 62.4 µM | 16.3 µM and > 10 µM | 32.6 µM and > 10 µM | 16.8 µM and > 10 µM | 20.1 µM and > 7.05 µM | 98.5 µM and > 10 µM | 1.1 µM and 1.33 µM | 11.5 µM and > 10 µM | 0.177 µM and 0.427 µM | 15.2 µM and > 10 µM | 28.1 µM and > 6.73 µM | > 100 µM | 16 µM and > 6.28 µM | > 74.5 µM | 16.7 µM and > 7.55 µM | 34.1 µM and > 10 µM | 45.6 µM and > 10 µM |
| Cc1nc2sc(C(=O)Nc3cccc(Br)c3)c(N)c2cc1C(O)c1ccccc1 (stereo not given) | 0.483 µM | 10.9 µM | 0.199 µM | 0.449 µM | 0.622 µM | 16.4 µM | 0.364 µM | 1.31 µM | 20.4 µM | 0.219 µM | 0.746 µM | 1.82 µM | 16.5 µM | 0.391 µM | 4.74 µM | 0.58 µM | > 100 µM | 1.77 µM | 26.4 µM | > 42.7 µM |
| CC[CH2][Sn]([CH2]CC)([O]C(=O)Cc1ccc(F)cc1)[O][Sn]([CH2]CC)([CH2]CC)[O]C(=O)Cc1ccc(F)cc1 | 0.0286 µM | 0.126 µM | 0.393 µM | 1.61 µM | 0.172 µM | 0.524 µM | 0.0266 µM | 0.276 µM | 1.23 µM | 0.149 µM | 0.469 µM | 0.482 µM | 1.65 µM | 1.34 µM | 2.7 µM | 0.0614 µM | 9.15 µM | 0.115 µM | 0.393 µM | 1.81 µM |
| Cn1c(=N)n[n+]([O-])c2ccccc21 | – | 36.4 µM | – | 1.83 µM and 2.39 µM | – | 2.37 µM and 3.61 µM | – | – | 7.55 µM and 5.23 µM | 3.07 µM and 9.29 µM | 9.7 µM and 23.2 µM | – | 8.83 µM and 17.6 µM | 2.59 µM and 20 µM | 4.53 µM and 37.5 µM | – | 5.57 µM and 5.16 µM | – | 8.87 µM and 12.5 µM | 10.8 µM and 5.45 µM |
| Cc1nn(C)c2cc(N(C)c3ccnc(Nc4cccc(S(N)(=O)=O)c4)n3)ccc12 | 5.98 µM | > 19.2 µM | 6.12 µM | > 25 µM | 5.94 µM | > 22.7 µM | 2.13 µM | 6.15 µM | > 25 µM | 5.27 µM | 17.5 µM | 3.44 µM | > 18.1 µM | 7.87 µM | > 25 µM | 6.62 µM | > 23.8 µM | 9.32 µM | > 25 µM | > 25 µM |
| CC#CC(=O)N1CC[C@@H](n2c(=O)n(-c3ccc(Oc4ccccc4)cc3)c3c(N)ncnc32)C1 | 37.3 µM | > 100 µM | 27.4 µM | > 100 µM | 14.8 µM | 42.8 µM | – | 20.4 µM | > 100 µM | 6.38 µM | 44.6 µM | 10.8 µM | > 100 µM | 33 µM | > 100 µM | 10.2 µM | 62.1 µM | 38.8 µM | > 100 µM | – |
| Nc1nc(-c2ccccc2)cc(-c2ccc(Cl)cc2)c1-c1nc2ccccc2o1 | 21.5 µM | 44.6 µM | 17.6 µM | 35.3 µM | 16.6 µM | 30.6 µM | 10.9 µM | 13.5 µM | 28 µM | 16.7 µM | 30.3 µM | 8.36 µM | 21.3 µM | 7.44 µM | 23.6 µM | 5 µM | 20.3 µM | 18 µM | 37.9 µM | 29.3 µM |
| Fc1cccc(-c2[nH]nc3nc(Nc4cccnc4)sc23)c1 | 3.1 µM | > 100 µM | 0.28 µM | > 100 µM | > 100 µM | > 100 µM | 0.421 µM | 16.1 µM | > 100 µM | > 100 µM | > 100 µM | 95.1 µM | > 100 µM | 2.38 µM | > 100 µM | 9.13 µM | > 100 µM | 42.2 µM | > 100 µM | > 100 µM |
| COc1cc(N2CCC(N3CCN(C)CC3)CC2)ccc1Nc1ncc(Cl)c(Nc2ccccc2S(=O)(=O)C(C)C)n1 | 0.6 µM | 1.86 µM | 0.387 µM | 2.36 µM | 1.18 µM | 3.39 µM | 1.67 µM | 0.341 µM | 2.17 µM | 0.263 µM | 1.73 µM | 1.12 µM | 2.44 µM | 0.604 µM | 5.11 µM | 0.809 µM | 5.71 µM | 1.33 µM | 3.45 µM | 5.41 µM |
| COc1cc(C)c(NC(=O)CN(C)C)cc1Nc1nc(Nc2cccc(F)c2C(N)=O)c2cc[nH]c2n1 | 1.42 µM | 5.9 µM | 0.161 µM | 2.56 µM | 1.16 µM | 7.89 µM | 1.41 µM | 2.92 µM | 7.43 µM | 1.25 µM | 6.02 µM | 3.33 µM | 7.08 µM | 0.604 µM | 4.49 µM | 1.09 µM | 25 µM | 0.479 µM | 3.32 µM | 6.38 µM |
| CCN1CCN(c2ccc(Nc3ncc4ccc5ncn(C(C)C)c5c4n3)nc2)CC1 | 0.0765 µM | 0.248 µM | 0.132 µM | 1.61 µM | 0.199 µM | 0.723 µM | 0.132 µM | 0.273 µM | 0.885 µM | < 0.0337 µM | 0.241 µM | 0.0291 µM | 0.378 µM | 0.0777 µM | 0.68 µM | 0.0416 µM | 1.91 µM | 0.144 µM | 0.357 µM | – |
| Cn1c(=O)c2[nH]c(CCCCc3nc4c([nH]3)c(=O)n(C)c(=S)n4C)nc2n(C)c1=S | – | > 100 µM | – | > 100 µM | – | > 100 µM | – | – | > 100 µM | – | > 100 µM | – | > 100 µM | – | > 100 µM | – | – | – | > 100 µM | > 100 µM |
| Cc1cc2nc(C(Cl)Cl)nc(-c3ccccc3)n2n1 | 2.27 µM | 5.75 µM | 5.84 µM | 23.9 µM | 8.55 µM | 56 µM | 4.61 µM | 2.19 µM | 7.51 µM | 2.6 µM | 11.2 µM | 5.02 µM | 21.6 µM | 1.97 µM | 5.13 µM | 5.67 µM | > 100 µM | 27.8 µM | > 100 µM | > 100 µM |
| N#Cc1nn(-c2cc(=O)[nH]c3ccc(Br)cc23)c(N)c1C#N | > 100 µM | > 100 µM | > 100 µM | > 100 µM | > 100 µM | > 100 µM | > 100 µM | – | – | > 100 µM | > 100 µM | > 100 µM | > 100 µM | > 100 µM | > 100 µM | > 100 µM | > 100 µM | > 100 µM | > 100 µM | > 100 µM |
| CC(CN)[C@@H]1CC[C@]2(CO)CC[C@]3(C)[C@H](CC[C@@H]4[C@@]5(C)CCC(N)C(C)(C)[C@@H]5CC[C@]43C)[C@@H]12 (stereo not given in full) | 1.55 µM | 3.07 µM | 1.73 µM | 3.26 µM | 1.92 µM | 3.64 µM | – | 1.61 µM | 3.16 µM | 1.84 µM | 3.31 µM | 1.55 µM | 3.04 µM | 1.84 µM | 3.49 µM | – | – | 1.93 µM | 3.6 µM | – |
| Cc1ccc(C2=NN(c3ccc(S(N)(=O)=O)cc3)C(c3cn(-c4ccccc4)nc3-c3ccccc3)C2)cc1 (stereo not given) | 3.81 µM | 17.8 µM | 10 µM | > 100 µM | 32.4 µM | > 100 µM | 3.82 µM | – | – | 1.84 µM | 5.19 µM | 5.38 µM | > 100 µM | 4.22 µM | > 100 µM | 3.72 µM | > 100 µM | 43.7 µM | > 100 µM | > 100 µM |
| O=C(O)c1ccccc1Nc1ccc2nnc(-c3ccncc3)n2n1 | 3.18 µM | 9.98 µM | 4.02 µM | 23.1 µM | 5.18 µM | 19.5 µM | 15.1 µM | – | – | 15.5 µM | 29.5 µM | 3.81 µM | 15.5 µM | 4.27 µM | 24 µM | 6.99 µM | > 100 µM | 3.15 µM | 9.08 µM | > 100 µM |
| Cc1ccc(NC(=O)c2cc3ccccc3cc2O)c(C)c1.Cc1ccc(NC(=O)c2cc3ccccc3cc2[O-])c(C)c1.[Ni+2] | 1.9 µM | 6.37 µM | 3.38 µM | 13.1 µM | 4.91 µM | 21.2 µM | 3.7 µM | 3.88 µM | 25.4 µM | 3.44 µM | 13.4 µM | 3.79 µM | 11.9 µM | 2.77 µM | 14.3 µM | – | – | 1.53 µM | 3.62 µM | 12.9 µM |
